This passage reports inhibition and melting point results from patent US20060063820A1, “2,6-dihalo-4-(3,3-dichloro-allyloxy)-benzylalcohole derivatives having insecticidal and acaricidal properties” (priority 2002, published 2006).

One data set relates to Plutella xylostella. The experiment in a line: Action against Plutella xylostella caterpillars (sprayed cabbage plants). The following applies: 72 h, read-out: percentage reduction in population and percentage reduction in feeding damage (% activity). The data set is classed as in vivo. As to the method: Young cabbage plants are sprayed with an aqueous emulsion spray mixture comprising 400 ppm of active ingredient. After the spray-coating has dried, the cabbage plants are populated with 10 caterpillars of Plutella xylostella in the third stage and placed in a plastics container. Evaluation is made 3 days later. The percentage reduction in population and the percentage reduction in feeding damage (% activity) are determined by comparing the number of dead caterpillars and the feeding damage on the treated plants with that on the untreated plants.

The subject of a further data set is Spodoptera littoralis. The data set can be described thus: Action against Spodoptera littoralis (sprayed soybean plants). The data set is classed as in vivo. The following applies: 72 h, read-out: percentage reduction in population and percentage reduction in feeding damage (% activity). The procedure: Young soybean plants are sprayed with an aqueous emulsion spray mixture comprising 400 ppm of test compound and, after the spray-coating has dried, the plants are populated with 10 caterpillars of Spodoptera littoralis in the first stage and then placed in a plastics container. 3 days later, the percentage reduction in population and the percentage reduction in feeding damage (% activity) are determined by comparing the number of dead caterpillars and the feeding damage on the treated plants with that on untreated plants.

The test system of another data set is Heliothis virescens. The experiment in a line: Action against Heliothis virescens caterpillars (sprayed soybean plants). The data set is classed as in vivo. The following applies: 144 h, read-out: percentage reduction in population and percentage reduction in feeding damage (% activity). The procedure:
Young soybean plants are sprayed with an aqueous emulsion spray mixture comprising 400 ppm of active ingredient. After the spray-coating has dried, the soybean plants are populated with 10 caterpillars of Heliothis virescens in the first stage and placed in a plastics container. Evaluation is made 6 days later. The percentage reduction in population and the percentage reduction in feeding damage (% activity) are determined by comparing the number of dead caterpillars and the feeding damage on the treated plants with that on the untreated plants.

The mark [1] stands for this setting: 400 ppm spray mixture, cabbage plants, caterpillars in the third stage, evaluation 3 days later.
Setting [2] is: 400 ppm spray mixture, soybean plants, caterpillars in the first stage, 3 days later.
Setting [3] is: 400 ppm spray mixture, soybean plants, caterpillars in the first stage, evaluation 6 days later.

Like-named read-outs stand apart in the source and are kept apart here.

Consider `FC(F)(F)Oc1ccc(C2OCC(COCc3c(Cl)cc(OCC=C(Cl)Cl)cc3Cl)O2)cc1` (single isomer, unassigned) [Compound 2.3, 4-[2,6-dichloro-4-(3,3-dichloroallyloxy)-benzyloxymethyl]-2-(4-trifluoromethoxyphenyl)-[1,3]dioxolane], for which the inhibition at 400 ppm in the data set with Plutella xylostella (setting [1]), with Spodoptera littoralis (setting [2]) and in the data set on Heliothis virescens (setting [3]) was above 80% each time.

As for `FC(F)(F)c1ccc(OCc2c(Cl)cc(OCC=C(Cl)Cl)cc2Cl)cc1` [Compound 1.2], the inhibition at 400 ppm with Spodoptera littoralis (setting [2]) and in the data set with Heliothis virescens (setting [3]) was above 80% throughout.

For the compound `C#CCOc1cccc(OCc2c(Cl)cc(OCC=C(Cl)Cl)cc2Cl)c1` [Compound 1.3], the inhibition at 400 ppm with Plutella xylostella, in the data set on Spodoptera littoralis and with Heliothis virescens was above 80% each time.

Consider `ClC(Cl)=CCOc1cc(Cl)c(COc2ccc3c(c2)OCO3)c(Cl)c1` [Compound 1.8], for which, in the data set on Plutella xylostella, the inhibition at 400 ppm is above 80%.

Take `ClC(Cl)=CCOc1cc(Cl)c(COc2ccnc3cc(Cl)ccc23)c(Cl)c1` [Compound 1.12]: the inhibition at 400 ppm with Plutella xylostella, with Spodoptera littoralis and with Heliothis virescens was above 80% throughout.

For `FC(F)(F)c1cc(OCc2c(Cl)cc(OCC=C(Cl)Cl)cc2Cl)ccn1` [Compound 1.14], the inhibition at 400 ppm in the data set on Plutella xylostella (setting [1]) was above 80%.

In the case of `Cc1nsc(Oc2cccc(OCc3c(Cl)cc(OCC=C(Cl)Cl)cc3Cl)c2)n1` [Compound 1.21], in the data set on Plutella xylostella (setting [1]), the inhibition at 400 ppm is above 80%.

Turning to `ClC(Cl)=CCOc1cc(Cl)c(COCC2COC(c3ccc(Br)s3)O2)c(Cl)c1` (stereo not shown) [Compound 2.8], the inhibition at 400 ppm with Plutella xylostella (setting [1]), in the data set on Spodoptera littoralis (setting [2]) and in the data set with Heliothis virescens (setting [3]) was above 80% in each case.

On to `FC1(F)Oc2cccc(C3OCC(COCc4c(Cl)cc(OCC=C(Cl)Cl)cc4Cl)O3)c2O1` (stereo not shown) [Compound 2.10], for which the inhibition at 400 ppm in the data set on Plutella xylostella (setting [1]), in the data set with Spodoptera littoralis (setting [2]) and with Heliothis virescens (setting [3]) was above 80% throughout.

As to `O=[N+]([O-])c1cc(C2OCC(COCc3c(Cl)cc(OCC=C(Cl)Cl)cc3Cl)O2)cs1` (stereo not shown) [Compound 2.12], the inhibition at 400 ppm in the data set with Plutella xylostella (setting [1]), in the data set with Spodoptera littoralis (setting [2]) and in the data set with Heliothis virescens (setting [3]) was above 80% throughout.

Turning to `Cn1nc(C2OCC(COCc3c(Cl)cc(OCC=C(Cl)Cl)cc3Cl)O2)c(C(F)(F)F)c1Cl` (stereo not shown) [Compound 2.15], the inhibition at 400 ppm with Plutella xylostella (setting [1]), in the data set on Spodoptera littoralis (setting [2]) and in the data set with Heliothis virescens (setting [3]) was above 80% in each case.

On to `N#Cc1c(Br)sc(C2OCC(COCc3c(Cl)cc(OCC=C(Cl)Cl)cc3Cl)O2)c1Cl` (stereo not shown) [Compound 2.17], for which the inhibition at 400 ppm in the data set with Plutella xylostella (setting [1]) and in the data set on Heliothis virescens (setting [3]) was above 80% throughout.

In the case of `CC(C)Oc1ccc(C2(C(=O)OCc3c(Cl)cc(OCC=C(Cl)Cl)cc3Cl)CC2)cc1` [Compound 3.12], the inhibition at 400 ppm in the data set on Plutella xylostella (setting [1]), in the data set on Spodoptera littoralis (setting [2]) and in the data set on Heliothis virescens (setting [3]) was above 80% each time.

In the case of `O=C(OCc1c(Cl)cc(OCC=C(Cl)Cl)cc1Cl)C1(c2ccc(OC(F)(F)F)cc2)CC1` [Compound 3.15], the inhibition at 400 ppm with Plutella xylostella (setting [1]), in the data set with Spodoptera littoralis (setting [2]) and in the data set on Heliothis virescens (setting [3]) was above 80% each time.

In the case of `O=C(OCc1c(Cl)cc(OCC=C(Cl)Cl)cc1Cl)C1(c2ccc(F)cc2F)CC1` [Compound 3.16], the melting point – broadly, the temperature of the solid-liquid transition – lay within 63 to 64 °C.

In turn, `O=C(OCc1c(Cl)cc(OCC=C(Cl)Cl)cc1Cl)C1(c2ccc([N+](=O)[O-])cc2)CC1` [Compound 3.17] displayed a melting point of 107 to 108 °C.

`C#COc1cccc(OCCOCc2c(Cl)cc(OCC=C(Cl)Cl)cc2Cl)c1` [Compound 4.4, 1,3-dichloro-5-(3,3-dichloroallyloxy)-2-[2-(3-ethynyloxy-phenoxy)-ethoxymethyl]-benzene]: the inhibition at 400 ppm in the data set on Plutella xylostella (setting [1]) and in the data set on Heliothis virescens (setting [3]) was above 80% throughout.

Compound `Cc1nsc(Oc2ccc(OCCOCc3c(Cl)cc(OCC=C(Cl)Cl)cc3Cl)cc2)n1` [Compound 4.10] registered a melting point of 95 to 97 °C.

`FC(F)(F)c1ccc(OCCOCc2c(Cl)cc(OCC=C(Cl)Cl)cc2Cl)nc1` [Compound 4.11]: the inhibition at 400 ppm in the data set with Plutella xylostella (setting [1]), in the data set with Spodoptera littoralis (setting [2]) and with Heliothis virescens (setting [3]) was above 80% throughout.

On to `FC(F)(F)c1ccc(COCc2c(Cl)cc(OCC=C(Cl)Cl)cc2Cl)cc1` [Compound 5.6], for which the inhibition at 400 ppm in the data set with Plutella xylostella (setting [1]), in the data set on Spodoptera littoralis (setting [2]) and in the data set with Heliothis virescens (setting [3]) was above 80% throughout.

For the compound `O=[N+]([O-])c1cccc(COCc2c(Cl)cc(OCC=C(Cl)Cl)cc2Cl)c1` [Compound 5.9, 1,3-dichloro-5-(3,3-dichloroallyloxy)-2-(3-nitrobenzyloxymethyl)-benzene], the inhibition at 400 ppm in the data set with Plutella xylostella and in the data set on Heliothis virescens was above 80% each time.

As for `ClC(Cl)=CCOc1cc(Cl)c(COCc2cnc(Cl)c(Cl)c2)c(Cl)c1` [Compound 5.14], the inhibition at 400 ppm in the data set with Plutella xylostella, in the data set on Spodoptera littoralis and with Heliothis virescens was above 80% throughout.

For `O=C(NCc1c(Cl)cc(OCC=C(Cl)Cl)cc1Cl)Nc1ccccc1C(F)(F)F` [Compound 6.23, 1-[2,6-dichloro-4-(3,3-dichloroallyloxy)-benzyl]-3-(2-trifluoromethylphenyl)-urea], the melting point lay within 215 to 216 °C. Also, the inhibition at 400 ppm in the data set with Plutella xylostella (setting [1]) was above 80%. Besides, in the data set with Spodoptera littoralis (setting [2]), the inhibition at 400 ppm was above 80%. Also, the inhibition at 400 ppm in the data set with Heliothis virescens (setting [3]) is above 80%.

As to `COC(=O)COCc1c(Cl)cc(OCC=C(Cl)Cl)cc1Cl` [Compound 7.5], the inhibition at 400 ppm in the data set with Plutella xylostella (setting [1]), with Spodoptera littoralis (setting [2]) and in the data set on Heliothis virescens (setting [3]) was above 80% each time.

Consider `O=C(OCCOCc1c(Cl)cc(OCC=C(Cl)Cl)cc1Cl)c1ccc(C(F)(F)F)cc1` [Compound 8.11], for which the inhibition at 400 ppm in the data set with Spodoptera littoralis (setting [2]) was above 80%.

Regarding `O=C(OCCOCc1c(Cl)cc(OCC=C(Cl)Cl)cc1Cl)c1ccc(OC(F)(F)F)cc1` [Compound 8.12], the inhibition at 400 ppm with Plutella xylostella (setting [1]), in the data set on Spodoptera littoralis (setting [2]) and in the data set on Heliothis virescens (setting [3]) was above 80% each time.
